Measured values from patent US9096601B2 (CSPC Zhongqi Pharmaceutical Technology (Shijiazhuang) Co., …, priority 2010, dated 2015).

Tests used:
Test in all cases: In-vitro tumor cell proliferation inhibition, MTT
Assay type in all cases: cell-based, human
[1] = system: non-small cell lung carcinoma cell strain PC-9 (EGFR delE746-A750 deletion mutation); details: 72 hours
Protocol: (§1) The object of this assay was to test the inventive compounds for the inhibitory activity of in-vitro tumor cell proliferation. The MTT (tetreamethyl-azo-zole-salt) colorimetric method was used in this assay.
(§2) All of the above-mentioned non-small cell lung carcinoma cell strains and the breast carcinoma cell strain BT 474 were cultured with a RPMI-1640 complete culture medium containing 10% fetal bovine serum, 100 U/ml penicillin and 100 μg/ml streptomycin under 5% CO2 and at 37° C. The other cell strains were cultured with a DMEM complete culture medium containing 10% fetal bovine serum (having a MV4-11 cell content of 20%), 100 U/ml penicillin and 100 μg/ml streptomycin under 5% CO2 and 37° C.
(§3) A cell suspension having a cell concentration of 1-2×10^4 cells/ml was treated with a complete cell culture solution to adjust the cell concentration, wherein the cell concentrations for HCC827 and MV4-11 were adjusted to 6×10^4 cells/ml and 1×10^5 cells/ml respectively. The cell suspension was inoculated in a 96-well plate with 200 μl cell suspension/well and cultured overnight. Next day, the supernatant was drawn off and discarded. Then, the cells were treated with the tested compounds in a gradient concentration respectively. In the meanwhile, a negative control group free of the drug substance and an isovolumetric solvent control group (having a DMSO concentration of 1%) were used. The triplicate wells were used for each of dose groups. The culturing was conducted at 37° C. under 5% CO2. After 72 hours, […] having a concentration of 5 mg/ml was added to each of wells. The culturing was further conducted for 2-4 hours. The supernatant was discarded. Then […] was added to each of wells. The contents in the well were mixed homogenously by oscillation for 15 minutes. The absorbance (A) value was measured with a microplate reader at λ=570 nm (the A value is in the direct proportion to the number of living cells) and averaged. The relative cell proliferation inhibitory rate is (A570 control-group−A570 dose-group)/A570 control-group×100%. The assay was repeated for at least three times. The data was expressed as number average. The statistical data were analyzed using t-test. P<0.05 was considered significant. The cell proliferation inhibition of the following compounds was expressed as IC50 or inhibitory rate.

[2] = system: non-small cell lung carcinoma cell strain H292 (EGFR WT); details: 72 hours
Protocol: as §1, §2, §3

[3] = system: non-small cell lung carcinoma cell strain H1975 (EGFR L858R/T790M mutation); details: 72 hours
Protocol: as §1, §2, §3

[4] = system: non-small cell lung carcinoma cell strain HCC827; details: 72 hours
Protocol: as §1, §2, §3

[5] = system: malignant melanoma cell strain A375; details: 72 hours
Text: as §1
(§4) Human non-small cell lung carcinoma cell strains HCC827, PC-9, H1975 (EGFR L858R/T790M mutation) and H292 (EGFR WT), and other tumor type cell strains, including human acute myelogenous leukemia cell strain MV4-11, human chronic granulocytic leukemia cell strain K562, human squamous cell carcinoma cell strain A431, human breast carcinoma cell strains MDA-MB-468 and BT 474, human colon cancer cell strains SW480, HCT116 and SW620, human liver cancer cell strain Hep G2, human gastric cancer cell strain MK-45, and human malignant melanoma cell strain A375 used in this assay were all purchased from ATCC company, USA and kept in the laboratory. All of the above-mentioned non-small cell lung carcinoma cell strains and the breast carcinoma cell strain BT 474 were cultured with a RPMI-1640 complete culture medium containing 10% fetal bovine serum, 100 U/ml penicillin and 100 μg/ml streptomycin under 5% CO2 and at 37° C. The other cell strains were cultured with a DMEM complete culture medium containing 10% fetal bovine serum (having a MV4-11 cell content of 20%), 100 U/ml penicillin and 100 μg/ml streptomycin under 5% CO2 and 37° C.
as §3

[6] = system: liver cancer cell strain Hep G2; details: 72 hours, read-out: HEPG2 (IC50)
Text: as §1, §4, §3

[7] = system: colon cancer cell strain SW480; details: 72 hours
Text: as §1, §4, §3

[8] = system: breast carcinoma cell strain BT474; details: 72 hours
Text: as §1, §4, §3

[9] = system: gastric cancer cell strain MK-45; details: 72 hours, read-out: MK45 (IC50)
Text: as §1, §4, §3

[10] = system: colon cancer cell strain SW620; details: 72 hours
Text: as §1, §4, §3

[11] = system: acute myelogenous leukemia cell strain MV4-11; details: 72 hours
Text: as §1, §4, §3

[12] = system: colon cancer cell strain HCT116; details: 72 hours
Text: as §1, §4, §3

[13] = system: squamous cell carcinoma cell strain A431; details: 72 hours
Text: as §1, §4, §3

[14] = system: chronic granulocytic leukemia cell strain K562; details: 72 hours
Text: as §1, §4, §3

[15] = system: breast carcinoma cell strain MDA-MB-468; details: 72 hours
Text: as §1, §4, §3

| IC50 [1] | IC50 [2] | IC50 [3] | IC50 [4] | IC50 [5] | IC50 [6] | IC50 [7] | IC50 [8] | IC50 [9] | IC50 [10] | IC50 [11] | IC50 [12] | IC50 [13] | IC50 [14] | IC50 [15] | SMILES |
| --- | --- | --- | --- | --- | --- | --- | --- | --- | --- | --- | --- | --- | --- | --- | --- |
| 0.0002 µM | 0.0041 µM | 0.552 µM | 0.0002 µM | 8.07 µM | > 10 µM | 4.21 µM | 1.51 µM | 0.559 µM | 2.11 µM | 0.899 µM | > 10 µM | 0.249 µM | 0.0953 µM | 0.622 µM | Cc1cccc(Nc2nc3cnc(Nc4ccc(N5CCN(C)CC5)cc4)nc3n2C2CCCC2)c1 [Compounds 8-53] |
| 0.0006 µM | 0.004 µM | 0.271 µM | 0.0003 µM | 0.974 µM | 7.23 µM | 4.62 µM | 0.165 µM | 0.457 µM | 1.57 µM | 0.642 µM | 5.93 µM | 0.0796 µM | 0.148 µM | 0.737 µM | CN1CCN(c2ccc(Nc3ncc4nc(Nc5cccc(Cl)c5)n(C5CCCC5)c4n3)cc2)CC1 [Compounds 8-52] |
| 0.001 µM | > 10 µM | 0.323 µM | 0.0002 µM | 2.77 µM | 4.68 µM | 5.32 µM | 0.456 µM | 1.72 µM | 2.97 µM | 0.682 µM | 6.55 µM | 0.198 µM | 0.088 µM | 2.18 µM | CN1CCN(c2ccc(Nc3ncc4nc(Nc5cc(F)ccc5F)n(C5CCCC5)c4n3)cc2)CC1 [Compounds 8-55] |
| 0.42 µM | 1.23 µM | 6.31 µM | 0.0631 µM | 6.57 µM | 8.46 µM | 9.95 µM | 2.63 µM | 1.66 µM | > 10 µM | 0.125 µM | 10.5 µM | 2.57 µM | 1.6 µM | 3.26 µM | Cc1nc(Nc2ccc(N3CCN(C)CC3)cc2)nc2c1nc(Nc1ccccc1)n2C(C)C [Compounds 8-34] |
| 0.0035 µM | > 10 µM | 0.182 µM | 0.0003 µM | 1.56 µM | 8.25 µM | 2.72 µM | 2.16 µM | 0.218 µM | 0.964 µM | 0.0644 µM | 2.47 µM | 0.0829 µM | 0.0305 µM | 0.207 µM | CN1CCN(c2ccc(Nc3ncc4nc(Nc5ccccc5)n(C5CCCCC5)c4n3)cc2)CC1 [Compounds 8-50] |
| 3.32 µM | 0.673 µM | > 10 µM | 4.26 µM | 0.498 µM | > 10 µM | > 10 µM | 5.1 µM | 5.1 µM | > 10 µM | 6.64 µM | > 10 µM | 2.24 µM | 0.922 µM | 1.7 µM | CC(C)n1c(Nc2ccc(OCc3cccc(F)c3)c(Cl)c2)nc2cnc(Nc3ccc(N4CCOCC4)cc3)nc21 [Compounds 8-42] |
| 0.0095 µM | 0.0223 µM | 0.63 µM | 0.0002 µM | 0.539 µM | 8.21 µM | 6.72 µM | 0.764 µM | 0.248 µM | 0.733 µM | 0.0036 µM | 4.14 µM | 0.248 µM | 0.0113 µM | 0.351 µM | CN1CCN(c2ccc(Nc3ncc4nc(Nc5cccc(O)c5)n(C5CCCC5)c4n3)cc2)CC1 [Compounds 8-51] |
| 0.0035 µM | > 10 µM | 0.77 µM | 0.0003 µM | 0.4 µM | > 10 µM | 4.01 µM | 0.792 µM | 0.417 µM | 3.62 µM | 4.69 µM | 9.07 µM | 0.426 µM | 0.251 µM | 0.751 µM | C#Cc1cccc(Nc2nc3cnc(Nc4ccc(N5CCN(C)CC5)cc4)nc3n2C2CCCC2)c1 [Compounds 8-46] |
| 0.007 µM | 0.081 µM | > 10 µM | 0.0006 µM | > 10 µM | > 10 µM | > 10 µM | > 10 µM | > 10 µM | > 10 µM | 4.43 µM | > 10 µM | > 10 µM | > 10 µM | > 10 µM | COCCOc1ccc(Nc2ncc3nc(Nc4ccccc4)n(C4CCCC4)c3n2)cc1 [Compounds 8-56] |
| 0.177 µM | 0.752 µM | > 10 µM | 0.028 µM | > 10 µM | > 10 µM | 9.76 µM | > 10 µM | 4.59 µM | 8.37 µM | 6.16 µM | 7.86 µM | 5.77 µM | 0.352 µM | > 10 µM | CN1CCN(c2ccc(Nc3ncc4nc(Nc5cc(Cl)c(Cl)cc5Cl)n(C5CCCC5)c4n3)cc2)CC1 [Compounds 8-57] |
| 0.209 µM | 0.268 µM | 0.501 µM | 0.0165 µM | > 10 µM | 2.2 µM | 5.4 µM | 2.09 µM | 3.34 µM | 2.14 µM | 1.97 µM | 5.43 µM | 2.74 µM | 0.146 µM | 4.49 µM | CC(C)n1c(Nc2ccc(Cl)nc2)nc2cnc(Nc3ccc(N4CCN(C)CC4)cc3)nc21 [Compounds 8-41] |
| 0.0002 µM | 0.0045 µM | 0.31 µM | 0.0003 µM | 1.98 µM | 9.24 µM | 5.04 µM | 2.67 µM | 0.543 µM | 1.44 µM | 0.193 µM | 1.44 µM | 0.587 µM | 0.121 µM | 0.987 µM | CN1CCN(c2ccc(Nc3ncc4nc(Nc5cccc(F)c5)n(C5CCCC5)c4n3)cc2)CC1 [Compounds 8-49] |
| 0.0021 µM | 0.0033 µM | 0.248 µM | 0.0002 µM | 1.2 µM | > 10 µM | 4.75 µM | 1.1 µM | 0.808 µM | 1.33 µM | 0.0998 µM | 5.72 µM | 0.497 µM | 0.111 µM | 6.84 µM | CCN1CCN(Cc2ccc(Nc3ncc4nc(Nc5ccccc5)n(C5CCCC5)c4n3)cc2)CC1 [Compounds 8-59] |
